Earlier results in US20070105848A1 (priority 2005, published 2007).

Key:
adult humans = conditions: one week to 19 months, 100 mg b.i.d. or t.i.d. orally or 100 mg i.v.
[1] = target: Plasmodium falciparum glutathione reductase (Plasmodium falciparum, UniProt O15770)
methemoglobinemia = conditions: i.v., 1 mg/kg body weight

Chain of Plasmodium falciparum glutathione reductase (O15770 47-546): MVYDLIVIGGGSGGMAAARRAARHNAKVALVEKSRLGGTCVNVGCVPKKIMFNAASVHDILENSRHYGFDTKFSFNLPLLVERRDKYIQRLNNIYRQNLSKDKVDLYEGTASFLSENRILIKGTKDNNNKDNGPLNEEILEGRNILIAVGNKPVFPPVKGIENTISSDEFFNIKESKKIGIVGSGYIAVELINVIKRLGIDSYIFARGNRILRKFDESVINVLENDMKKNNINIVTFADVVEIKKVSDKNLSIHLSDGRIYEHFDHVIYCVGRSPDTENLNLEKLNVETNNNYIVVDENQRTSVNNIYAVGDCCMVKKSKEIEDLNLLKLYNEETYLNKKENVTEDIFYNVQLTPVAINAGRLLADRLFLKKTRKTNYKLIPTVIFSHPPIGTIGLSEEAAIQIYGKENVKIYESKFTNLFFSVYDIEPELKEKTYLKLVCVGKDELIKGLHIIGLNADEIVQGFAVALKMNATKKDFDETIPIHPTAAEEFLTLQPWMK

In the case of `CN(C)c1ccc2nc3ccc(N(C)C)cc3[s+]c2c1.[Cl-]` [Methylene blue, 3,7-bis(dimethylamino)-phenothiazin-5-ium chloride], the “side effects on prolonged administration” value (adult humans) is listed as “minimal side effects”, the “inhibition of Plasmodium falciparum glutathione reductase” value [1] is listed as “selective inhibitor” and the antimalarial activity (malaria) is listed as “intrinsic antimalarial activity”. For the same compound, the chloroquine sensitization (malaria) was “can act as a chloroquine sensitizer” and the treatment of methemoglobinemia (methemoglobinemia) was “effective”.
